Reference: patent US10736888B2, “Triple combination” (HELPERBY THERAPEUTICS LIMITED, priority 2015, dated 2020)

Assays:
S. aureus on pig skin = test: antimicrobial activity against S. aureus on pig skin (swab, CFU counting, log kill); format: cell-based, Staphylococcus aureus (Oxford); conditions: Example 3; 2 hours after application; inoculum 7.6 (7.62 = complete kill)
Protocol: Staphylococcus aureus (Oxford); Gram positive; Reference strain.
Bacterial cultures were prepared by inoculation of 10 ml of nutrient broth with a single colony of bacteria on blood agar or TSA and incubated at 37° C. with continuous shaking at 100 rpm for 16 to 24 hours. The overnight cultures were used for experimental tests.
For CFU counting, the bacterial suspensions were diluted using sterile deionized water or phosphate-buffered saline (PBS, Sigma Aldrich Ltd, Poole, Dorset, UK). 100 μl of 10-fold serial dilutions of bacteria culture were plated on one third of TSA plates in triplicate and incubated 24 to 48 hours at 37° C. The number of cells presented on the plates was counted using an AcoLyte colony counter (Synbiosis) and results were expressed as Colony Forming Units/ml (CFU/ml).
The efficacy of each of the above formulations F017A, F017B and F019 was assessed against S. aureus on pig skin. The S. aureus culture was grown overnight according to methods known in the art. The overnight culture was then spread on pig skin: 40 μl of culture was used for 2 cm^3 of pig skin. Each of the formulations F017A, F017B and F019 was then applied to the pig skin.
After 2 hours and 5 hours from application of each formulation, the pig skin was swabbed and bacteria on the swab were processed for CFU counting. The results for F017A, F017B and F019 against a control experiment (where no triple combination was applied to the pig skin) and against commercially available products Bactroban® cream (mupirocin) and Naseptin® (chlorhexidine and neomycin) are shown in FIG. 1.
The efficacy of each of the above formulations F017A, F017B and F019 was again assessed against S. aureus on pig skin. The S. aureus culture was grown overnight according to methods known in the art. The overnight culture was then spread on pig skin: 40 μl of culture was used for 2 cm^3 of pig skin. […]
The efficacy of each of the above formulations F017A, F022A, F022B, F022C, F022D, F022E, F022F, and F022G was assessed against S. aureus on pig skin. […]

[1] = test system: clinically latent microorganisms; test: screening for ability to kill clinically latent microorganisms (WO2000028074 method); format: cell-based
Text: International Patent Application, Publication Number WO2000028074 describes a method of screening compounds to determine their ability to kill clinically latent microorganisms. […] This observation has necessitated the development of novel antimicrobials which may be used to kill clinically latent microorganisms.
By way of example, WO2000028074 describes a suitable method of screening compounds to determine their ability to kill clinically latent microorganisms. A typical method may include the following steps: • (1) growing a bacterial culture to stationary phase; • (2) treating the stationary phase culture with one or more antimicrobial agents at a concentration and or time sufficient to kill growing bacteria, thereby selecting a phenotypically resistant sub-population; • (3) incubating a sample of the phenotypically resistant subpopulation with one or more test compounds or agents; and • (4) assessing any antimicrobial effects against the phenotypically resistant subpopulation.

Compound	Log Kill 2 h (S. aureus on pig skin)	activity against clinically latent microorganisms [1]
Cc1nc2ccc(Oc3ccccc3)cc2c2c1CCN2CCc1ccccc1 [HT61, 4-methyl-8-phenoxy-1-(2-phenylethyl)-2,3-dihydro-1H-pyrrolo[3,2-c]quinoline]	1.87	
C/C(=C\C(=O)OCCCCCCCCC(=O)O)C[C@@H]1OC[C@H](C[C@@H]2O[C@H]2[C@@H](C)[C@H](C)O)[C@@H](O)[C@H]1O [mupirocin]	0.49	little or no activity
neomycin	4.56	little or no activity
